Measured values as given in patent US20250388582A1, “NOVEL BICYCLIC HETEROARYL COMPOUND AND USE THEREOF” (ILDONG PHARMACEUTICAL CO., LTD., priority 2022, published 2025).

Molecular target: T1, human GST-PIKFYVE (Homo sapiens, UniProt Q9Y2I7)
T1 construct: GST; purchased Carna biosciences 11-118
Assay: ADP-Glo kinase assay, enzyme inhibition activity against human PIKFYVE (Carna biosciences)
Format: biochemical
Conditions: inhibitory activity at final compound concentration 10 nM; 1 hour at room temperature
Description: The enzyme inhibition activity values for the compounds according to Examples against human PIKFYVE were calculated using the ADP-Glo™ kinase assay service of Carna biosciences, Inc. The enzyme activity evaluation method provided by Carna biosciences Inc., is shown below.
Enzyme inhibition activity was evaluated by reacting the compounds according to Examples with human GST-PIKFYVE (11-118, Carna biosciences), which was purified using glutathione Sepharose chromatography. The reaction buffer used was composed of 50 mmol/L MOPS, 1 mmol/L DTT, and pH 7.2, and all reactions of the test distilled water were performed in the buffer.
Compounds were prepared as solutions in 100% DMSO as 100× stocks and adjusted to have a final sample concentration of 10 nM.
The substrate-enzyme reaction for PIKFYVE was performed by mixing 5 μL human GST-PIKFYVE, 5 μL compounds according to Examples, 5 μL enzyme substrate, and 5 μL purified ATP and reacting for 1 hour at room temperature. After the substrate-enzyme reaction, 20 μL ADP-Glo™ Reagent was added and reacted at room temperature for 40 minutes, then 40 μL Kinase Detection Reagent was added and reacted at room temperature for 40 minutes.
After completion of the reaction, the degree of enzyme activity inhibition was measured by luminescence. The fluorescence of the enzyme activity in the solvent control group […] was set to 100%, and the fluorescence of the enzyme activity in the solvent control group without compound treatment was set to 0%. The inhibitory activity of each compound according to Examples was calculated based on these values.

T1 sequence (Q9Y2I7 whole entry): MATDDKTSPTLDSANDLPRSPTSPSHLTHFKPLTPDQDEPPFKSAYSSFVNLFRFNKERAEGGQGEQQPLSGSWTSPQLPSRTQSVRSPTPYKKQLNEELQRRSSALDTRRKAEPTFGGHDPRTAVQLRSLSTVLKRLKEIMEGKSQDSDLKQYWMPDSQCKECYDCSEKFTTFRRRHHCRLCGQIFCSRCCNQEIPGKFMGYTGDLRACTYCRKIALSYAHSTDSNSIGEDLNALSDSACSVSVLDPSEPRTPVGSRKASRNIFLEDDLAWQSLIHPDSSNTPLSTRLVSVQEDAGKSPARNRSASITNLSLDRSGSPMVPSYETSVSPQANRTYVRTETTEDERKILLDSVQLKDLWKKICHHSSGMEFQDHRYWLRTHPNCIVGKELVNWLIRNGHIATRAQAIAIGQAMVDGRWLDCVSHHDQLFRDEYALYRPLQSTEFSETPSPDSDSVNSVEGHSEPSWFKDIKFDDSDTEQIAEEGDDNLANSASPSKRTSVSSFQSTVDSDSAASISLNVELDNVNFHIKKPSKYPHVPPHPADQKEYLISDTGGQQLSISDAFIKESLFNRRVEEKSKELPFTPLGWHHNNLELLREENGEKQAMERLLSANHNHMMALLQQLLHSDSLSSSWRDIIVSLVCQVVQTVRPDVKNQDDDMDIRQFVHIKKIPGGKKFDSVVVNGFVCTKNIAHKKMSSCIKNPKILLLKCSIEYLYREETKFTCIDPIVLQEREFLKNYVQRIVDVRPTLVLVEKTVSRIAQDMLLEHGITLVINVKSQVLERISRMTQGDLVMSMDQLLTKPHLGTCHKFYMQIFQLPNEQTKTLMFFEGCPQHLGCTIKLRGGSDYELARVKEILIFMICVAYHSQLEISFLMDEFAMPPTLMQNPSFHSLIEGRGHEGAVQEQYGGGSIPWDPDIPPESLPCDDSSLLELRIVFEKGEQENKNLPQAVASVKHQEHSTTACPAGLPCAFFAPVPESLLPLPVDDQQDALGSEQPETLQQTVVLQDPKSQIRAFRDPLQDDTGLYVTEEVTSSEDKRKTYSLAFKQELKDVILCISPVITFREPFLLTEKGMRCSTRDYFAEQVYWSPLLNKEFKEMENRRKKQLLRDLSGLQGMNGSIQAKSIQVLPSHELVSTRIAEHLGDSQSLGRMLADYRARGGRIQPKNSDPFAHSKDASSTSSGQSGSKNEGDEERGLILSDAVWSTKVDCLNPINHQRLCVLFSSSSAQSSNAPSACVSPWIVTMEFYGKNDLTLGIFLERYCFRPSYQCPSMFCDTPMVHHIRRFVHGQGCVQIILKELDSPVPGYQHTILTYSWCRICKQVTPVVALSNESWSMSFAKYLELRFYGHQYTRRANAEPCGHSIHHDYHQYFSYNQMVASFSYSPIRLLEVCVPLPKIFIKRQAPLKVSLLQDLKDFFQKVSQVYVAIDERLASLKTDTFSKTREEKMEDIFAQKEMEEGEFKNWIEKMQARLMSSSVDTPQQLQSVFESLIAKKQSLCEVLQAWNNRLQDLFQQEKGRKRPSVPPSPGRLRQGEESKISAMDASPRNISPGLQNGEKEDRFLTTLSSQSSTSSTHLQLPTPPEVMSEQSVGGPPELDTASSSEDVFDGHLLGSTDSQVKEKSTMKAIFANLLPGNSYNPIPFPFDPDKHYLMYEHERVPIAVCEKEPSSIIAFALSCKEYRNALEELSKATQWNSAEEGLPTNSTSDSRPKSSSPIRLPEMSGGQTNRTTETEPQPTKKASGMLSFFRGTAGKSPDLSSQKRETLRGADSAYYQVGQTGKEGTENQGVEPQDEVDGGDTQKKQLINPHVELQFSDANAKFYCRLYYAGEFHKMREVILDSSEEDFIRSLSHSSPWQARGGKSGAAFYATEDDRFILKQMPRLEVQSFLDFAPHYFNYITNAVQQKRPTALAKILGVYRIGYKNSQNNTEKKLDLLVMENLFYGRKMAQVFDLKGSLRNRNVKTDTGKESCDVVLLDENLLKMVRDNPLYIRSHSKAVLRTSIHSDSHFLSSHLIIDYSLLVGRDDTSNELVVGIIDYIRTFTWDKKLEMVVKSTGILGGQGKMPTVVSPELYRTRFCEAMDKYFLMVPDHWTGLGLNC

ADP-Glo kinase assay (%, 10 nM)	SMILES
63.61%	COC(=O)N1CC(n2cnc3c(N/N=C/c4cccc(C)c4)nc(N4CCOCC4)nc32)C1 [Example 83, methyl (E)-3-(6-(2-(3-methylbenzylidene)hydrazinyl)-2-morpholino-9H-purin-9-yl)azetidine-1-carboxylate]
53.87%	Cc1cccc(/C=N/n2c(C)nc3c(Nc4ccccc4)nc(N4CCOCC4)nc32)c1 [Example 206, (E)-8-methyl-9-((3-methylbenzylidene)amino)-2-morpholino-N-phenyl-9H-purin-6-amine]
63.58%	Cc1cccc(/C=N/Nc2nc(N3CCOCC3)nc3c2nc(C)n3-c2cc(C)n(C)n2)c1 [Example 153, (E)-4-(9-(1,5-dimethyl-1H-pyrazol-3-yl)-8-methyl-6-(2-(3-methylbenzylidene)hydrazinyl)-9H-purin-2-yl)morpholine]
54.29%	Cc1cccc(/C=N/Nc2nc(N3CCOCC3)nc3c2nc(C)n3-c2cccc(Cl)c2)c1 [Example 163, (E)-4-(9-(3-chlorophenyl)-8-methyl-6-(2-(3-methylbenzylidene)hydrazinyl)-9H-purin-2-yl)morpholine]
60.34%	Cc1cccc(/C=N/Nc2nc(N3CCOCC3)nc3c2ncn3C2CN(C(=O)c3ccccc3)C2)c1 [Example 81, (E)-(3-(6-(2-(3-methylbenzylidene)hydrazinyl)-2-morpholino-9H-purin-9-yl)azetidin-1-yl)(phenyl)methanone]
64.35%	Cc1cccc(/C=N/n2cnc3c(Nc4ccnc(Cl)c4)nc(N4CCOCC4)nc32)c1 [Example 193, (E)-N-(2-chloropyridin-4-yl)-9-((3-methylbenzylidene)amino)-2-morpholino-9H-purin-6-amine]
65.90%	Cc1cccc(/C=N/Nc2nc(N3CCOCC3)nc3c2nc(C)n3CC(=O)c2ccccc2)c1 [Example 156, (E)-2-(8-methyl-6-(2-(3-methylbenzylidene)hydrazinyl)-2-morpholino-9H-purin-9-yl)-1-phenylethan-1-one]
58.67%	Cc1cccc(/C=N/Nc2nc(N3CCOCC3)nc3c2ncn3CC(=O)C2CC2)c1 [Example 19, (E)-1-cyclopropyl-2-(6-(2-(3-methylbenzylidene)hydrazinyl)-2-morpholino-9H-purin-9-yl)ethan-1-one]
75.59%	Cc1cccc(/C=N/n2cnc3c(Nc4cc(C)no4)nc(N4CCOCC4)nc32)c1 [Example 198, (E)-3-methyl-N-(9-((3-methylbenzylidene)amino)-2-morpholino-9H-purin-6-yl)isoxazol-5-amine]
51.68%	Cc1cccc(/C=N/Nc2nc(N3CCOCC3)nc3c2cnn3-c2cccnc2)c1 [Example 13, (E)-4-(4-(2-(3-methylbenzylidene)hydrazinyl)-1-(pyridin-3-yl)-1H-pyrazolo[3,4-d]pyrimidin-6-yl)morpholine]
73.94%	COc1ccc(/C=N/n2cnc3c(Nc4ccncc4)nc(N4CCOCC4)nc32)cc1 [Example 173, (E)-9-((4-methoxybenzylidene)amino)-2-morpholino-N-(pyridin-4-yl)-9H-purin-6-amine]
79.60%	FC(F)(F)c1cccc(/C=N/n2cnc3c(Nc4ccncc4)nc(N4CCOCC4)nc32)c1 [Example 170, (E)-2-morpholino-N-(pyridin-4-yl)-9-((3-(trifluoromethyl)benzylidene)amino)-9H-purin-6-amine]
79.72%	COc1ccc(-n2c(C)nc3c(N/N=C/c4cccc(C)c4)nc(N4CCOCC4)nc32)cc1 [Example 161, (E)-4-(9-(4-methoxyphenyl)-8-methyl-6-(2-(3-methylbenzylidene)hydrazinyl)-9H-purin-2-yl)morpholine]

The remaining lines, values behind:

SMILES	ADP-Glo kinase assay (%, 10 nM)
Cc1cccc(/C=N/Nc2nc(N3CCOCC3)nc3c2ncn3-c2cccc(C(F)(F)F)c2)c1 [Example 130, (E)-4-(6-(2-(3-methylbenzylidene)hydrazinyl)-9-(3-(trifluoromethyl)phenyl)-9H-purin-2-yl)morpholine]	69.14%
Cc1cccc(/C=N/n2cnc3c(-n4ccnc4)nc(N4CCOCC4)nc32)c1 [Example 176, (E)-N-(6-(1H-imidazol-1-yl)-2-morpholino-9H-purin-9-yl)-1-(m-tolyl)methanimine]	56.91%
Cc1cccc(/C=N/n2cnc3c(Nc4cccnc4C)nc(N4CCOCC4)nc32)c1 [Example 194, (E)-9-((3-methylbenzylidene)amino)-N-(2-methylpyridin-3-yl)-2-morpholino-9H-purin-6-amine]	61.38%
COc1cccc(-c2ccn(-c3nc(N4CCOCC4)nc4c3ncn4CC(=O)c3ccccn3)n2)c1 [Example 68, 2-(6-(3-(3-methoxyphenyl)-1H-pyrazol-1-yl)-2-morpholino-9H-purin-9-yl)-1-(pyridin-2-yl)ethan-1-one]	56.03%
COc1cccc(C(=O)Cn2cnc3c(N/N=C/c4cccc(C)c4)nc(N4CCOCC4)nc32)c1 [Example 38, (E)-1-(3-methoxyphenyl)-2-(6-(2-(3-methylbenzylidene)hydrazinyl)-2-morpholino-9H-purin-9-yl)ethan-1-one]	82.96%
Cc1cccc(/C=N/Nc2nc(N3CCOCC3)nc3c2ncn3C2CCN(C(=O)c3ccccn3)CC2)c1 [Example 94, (E)-(4-(6-(2-(3-methylbenzylidene)hydrazinyl)-2-morpholino-9H-purin-9-yl)piperidin-1-yl)(pyridin-2-yl)methanone]	58.50%
Cc1cccc(/C=N/Nc2nc(N3CCOCC3)nc3c2nc(C)n3-c2cccc(F)c2)c1 [Example 162, (E)-4-(9-(3-fluorophenyl)-8-methyl-6-(2-(3-methylbenzylidene)hydrazinyl)-9H-purin-2-yl)morpholine]	78.79%
Cc1cccc(/C=N/Nc2nc(N3CCOCC3)nc3c2nc(C)n3-c2ccccn2)c1 [Example 164, (E)-4-(8-methyl-6-(2-(3-methylbenzylidene)hydrazinyl)-9-(pyridin-2-yl)-9H-purin-2-yl)morpholine]	63.89%
Cc1cccc(/C=N/n2cnc3c(Nc4ccccc4)nc(N4CCOCC4)nc32)c1 [Example 180, (E)-9-((3-methylbenzylidene)amino)-2-morpholino-N-phenyl-9H-purin-6-amine]	63.03%
C(=N\n1cnc2c(Nc3ccncc3)nc(N3CCOCC3)nc21)/c1ccccc1 [Example 169, (E)-9-(benzylideneamino)-2-morpholino-N-(pyridin-4-yl)-9H-purin-6-amine]	89.56%
COc1ccc(Nc2nc(N3CCOCC3)nc3c2ncn3/N=C/c2cccc(C)c2)cc1 [Example 178, (E)-N-(4-methoxyphenyl)-9-((3-methylbenzylidene)amino)-2-morpholino-9H-purin-6-amine]	55.44%
Cc1cccc(/C=N/Nc2nc(N3CCOCC3)nc3c2cnn3-c2ccncc2)c1 [Example 16, (E)-4-(4-(2-(3-methylbenzylidene)hydrazinyl)-1-(pyridin-4-yl)-1H-pyrazolo[3,4-d]pyrimidin-6-yl)morpholine]	63.02%
